Experimental data from ChEMBL document CHEMBL1153675, “Synthesis and opioid binding properties of 2-chloroacrylamido derivatives of 7,8-dihydromorphinans” (Bioorg Med Chem Lett, 1996).

Target: Mu-type opioid receptor (Bos taurus, UniProt P79350)
Experiment: Compound was tested for Inhibition of [3H]DAMGO (0.25 nM) binding to mu receptor from bovine striatal membranes

Mu-type opioid receptor, sequence (P79350 whole entry): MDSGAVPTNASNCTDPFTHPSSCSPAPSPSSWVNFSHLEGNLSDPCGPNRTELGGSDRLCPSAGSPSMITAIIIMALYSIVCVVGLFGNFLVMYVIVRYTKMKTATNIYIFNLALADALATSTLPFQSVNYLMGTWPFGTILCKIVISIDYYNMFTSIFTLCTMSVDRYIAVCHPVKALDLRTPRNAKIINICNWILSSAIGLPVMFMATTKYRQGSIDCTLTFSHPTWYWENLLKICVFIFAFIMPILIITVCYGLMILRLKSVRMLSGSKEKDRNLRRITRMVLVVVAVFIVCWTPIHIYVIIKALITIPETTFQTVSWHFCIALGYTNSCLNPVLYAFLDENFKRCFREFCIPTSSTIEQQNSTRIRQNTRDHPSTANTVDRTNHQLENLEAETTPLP

SMILES	IC50 [nM]
C=C(Cl)C(=O)N[C@@]12CCC(=O)[C@@H]3Oc4c(O)ccc5c4C31CCN(CC1CC1)C2C5 (some centres undefined)	23.5
C=C(Cl)C(=O)N[C@@H]1CCC2C3Cc4ccc(O)c5c4C2(CCN3CC2CC2)[C@H]1O5 (some centres undefined)	0.21
C=C(Cl)C(=O)N[C@@]12CCC(=O)[C@@H]3Oc4c(O)ccc5c4C31CCN(C)C2C5 (some centres undefined)	5.8
C=C(Cl)C(=O)N[C@@H]1CCC2C3Cc4ccc(O)c5c4C2(CCN3C)[C@H]1O5 (some centres undefined)	0.56
